# From ChEMBL document CHEMBL5390243, “Catecholamine Derivatives: Natural Occurrence, Structural Diversity, and Biological Activity” (J Nat Prod, 2023)
# Tests used:
# [1] = target: T1, Acetylcholinesterase (Homo sapiens, UniProt P22303); assay: Inhibition of AChE (unknown origin) by Ellman's method
# [2] = target: Cholinesterase (Homo sapiens, UniProt P06276); assay: Inhibition of butyrylcholinesterase (unknown origin)
# [3] = test system: RAW264.7; assay: Anti-inflammatory activity against mouse RAW264.7 cells assessed as inhibition of LPS-induced nitric oxide production at 50 uM preincubated for 2 hrs with compound followed by LPS-stimulation and measured after 24 hrs by Griess reagent based analysis; assay type: functional, cell-based
# [4] = target: Tyrosine-protein kinase JAK3 (Homo sapiens, UniProt P52333); assay: Inhibition of JAK3 (unknown origin) preincubated for 1 hr followed by substrate addition and measured after 1 hr in the presence of ATP by FRET-based Z'-Lyte assay
# Chain of Tyrosine-protein kinase JAK3 (P52333 whole entry): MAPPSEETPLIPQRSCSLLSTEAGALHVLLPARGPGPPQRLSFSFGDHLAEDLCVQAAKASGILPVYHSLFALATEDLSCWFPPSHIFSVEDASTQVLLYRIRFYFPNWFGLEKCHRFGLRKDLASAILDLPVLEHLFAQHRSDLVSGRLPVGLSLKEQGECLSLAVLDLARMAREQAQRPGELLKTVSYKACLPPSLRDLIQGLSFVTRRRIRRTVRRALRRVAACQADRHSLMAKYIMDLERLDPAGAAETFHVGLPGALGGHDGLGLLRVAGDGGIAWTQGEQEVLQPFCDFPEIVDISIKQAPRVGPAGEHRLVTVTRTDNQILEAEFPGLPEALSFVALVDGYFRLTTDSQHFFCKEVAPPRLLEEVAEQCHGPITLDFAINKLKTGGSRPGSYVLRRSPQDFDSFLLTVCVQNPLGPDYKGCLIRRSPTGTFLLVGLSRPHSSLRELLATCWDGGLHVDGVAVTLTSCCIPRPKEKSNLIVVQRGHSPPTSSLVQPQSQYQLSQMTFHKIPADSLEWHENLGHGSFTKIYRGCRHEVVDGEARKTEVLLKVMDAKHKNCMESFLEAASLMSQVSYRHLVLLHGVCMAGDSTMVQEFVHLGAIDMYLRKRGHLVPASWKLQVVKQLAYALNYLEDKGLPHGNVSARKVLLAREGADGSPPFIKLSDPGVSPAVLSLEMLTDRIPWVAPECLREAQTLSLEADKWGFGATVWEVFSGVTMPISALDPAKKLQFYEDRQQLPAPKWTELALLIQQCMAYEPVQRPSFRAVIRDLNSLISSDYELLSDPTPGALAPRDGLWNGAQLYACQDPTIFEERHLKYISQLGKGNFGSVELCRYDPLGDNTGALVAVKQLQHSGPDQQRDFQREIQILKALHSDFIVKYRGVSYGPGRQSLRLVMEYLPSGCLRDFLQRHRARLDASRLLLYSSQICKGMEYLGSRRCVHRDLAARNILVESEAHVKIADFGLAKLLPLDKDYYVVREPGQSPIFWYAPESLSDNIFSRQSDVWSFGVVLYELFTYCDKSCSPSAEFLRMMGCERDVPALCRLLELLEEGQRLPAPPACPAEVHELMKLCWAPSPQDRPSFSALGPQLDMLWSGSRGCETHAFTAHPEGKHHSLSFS
# [5] = target: Beta-1 adrenergic receptor (Homo sapiens) (UniProt P08588); assay: Agonist activity at ARbeta1 (unknown origin) expressed in CHO-K1 cells co-expressing G alpha 15 assessed as inhibition of isoproterenol induced calcium response upto 100 uM incubated for 10 mins by calcium mobilization assay relative to control; assay type: functional, cell-based; parameters: Activity: scale not given: the % may be the effect or the level left
# Chain of Beta-1 adrenergic receptor (Homo sapiens) (P08588 whole entry, looked up): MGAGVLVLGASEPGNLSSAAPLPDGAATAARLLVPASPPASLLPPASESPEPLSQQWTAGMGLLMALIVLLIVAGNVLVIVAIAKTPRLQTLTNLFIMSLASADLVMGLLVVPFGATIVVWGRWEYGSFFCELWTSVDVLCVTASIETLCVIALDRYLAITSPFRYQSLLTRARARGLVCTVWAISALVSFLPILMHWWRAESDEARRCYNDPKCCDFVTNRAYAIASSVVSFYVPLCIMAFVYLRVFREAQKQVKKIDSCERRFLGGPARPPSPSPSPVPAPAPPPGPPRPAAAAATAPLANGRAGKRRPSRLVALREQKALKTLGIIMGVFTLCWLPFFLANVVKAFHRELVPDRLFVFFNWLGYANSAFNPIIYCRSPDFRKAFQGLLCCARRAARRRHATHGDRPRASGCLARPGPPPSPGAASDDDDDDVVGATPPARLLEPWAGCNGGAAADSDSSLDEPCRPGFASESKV
# [6] = test system: SGC-7901; assay: Cytotoxicity against human SGC-7901 cells assessed as reduction in cell viability measured after 72 hrs by MTT assay; assay type: functional, cell-based; conditions: SGC-7901, 72 h
# [7] = target: Alpha-2B adrenergic receptor (Homo sapiens, UniProt P18089); assay: Binding affinity to alpha2B receptor (unknown origin) assessed as inhibition constant
# Chain of Alpha-2B adrenergic receptor (P18089 whole entry): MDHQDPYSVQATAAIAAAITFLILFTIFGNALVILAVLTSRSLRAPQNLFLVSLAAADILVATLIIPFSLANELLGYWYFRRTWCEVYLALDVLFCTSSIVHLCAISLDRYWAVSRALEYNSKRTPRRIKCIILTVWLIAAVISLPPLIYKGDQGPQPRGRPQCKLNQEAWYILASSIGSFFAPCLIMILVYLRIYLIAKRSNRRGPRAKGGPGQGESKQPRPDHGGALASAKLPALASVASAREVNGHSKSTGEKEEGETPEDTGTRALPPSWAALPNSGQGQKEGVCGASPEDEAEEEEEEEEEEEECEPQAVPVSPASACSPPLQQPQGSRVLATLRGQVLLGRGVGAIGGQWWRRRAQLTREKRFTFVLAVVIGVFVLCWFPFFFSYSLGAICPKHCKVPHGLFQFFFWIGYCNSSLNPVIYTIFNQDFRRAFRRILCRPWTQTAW
# [8] = test system: RAW264.7; assay: Anti-inflammatory activity against mouse RAW264.7 cells assessed as inhibition of LPS-induced NO production at 100 ng/ml pretreated with compound for 2 hrs followed by LPS stimulation and measured after 24 hrs by Griess reagent based analysis; assay type: functional; parameters: scale not given: the % may be the effect or the level left; conditions: time 26 hrs
# [9] = test system: RAW264.7; assay: Antiinflammatory activity against LPS-induced mouse RAW264.7 cells assessed as reduction in IL-6 mRNA expression at 10 uM by RT-PCR analysis; assay type: functional; parameters: scale not given: the % may be the effect or the level left
# [10] = target: Cyclin-dependent kinase 5/CDK5 activator 1 (Homo sapiens, UniProt Q00535); assay: Inhibition of N-terminal full length human recombinant CDK5/p25 expressed in baculovirus-infected Sf21 cells incubated for 60 mins in presence of ATP by kinase-glo luminescent assay
# Chain of Cyclin-dependent kinase 5/CDK5 activator 1 (Q00535 whole entry, the tested form may be a part, canonical isoform): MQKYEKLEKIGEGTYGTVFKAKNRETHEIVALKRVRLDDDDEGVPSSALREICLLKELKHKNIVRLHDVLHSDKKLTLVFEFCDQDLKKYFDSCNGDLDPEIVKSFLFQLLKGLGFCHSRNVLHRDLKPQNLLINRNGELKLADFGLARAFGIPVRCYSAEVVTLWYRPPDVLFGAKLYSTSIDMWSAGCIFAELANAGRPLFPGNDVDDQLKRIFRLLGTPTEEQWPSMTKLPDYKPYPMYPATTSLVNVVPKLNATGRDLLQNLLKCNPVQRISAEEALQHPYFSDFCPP
# Chain of Cyclin-dependent kinase 5/CDK5 activator 1 (Q15078 whole entry, further chain, the tested form may be a part, canonical isoform): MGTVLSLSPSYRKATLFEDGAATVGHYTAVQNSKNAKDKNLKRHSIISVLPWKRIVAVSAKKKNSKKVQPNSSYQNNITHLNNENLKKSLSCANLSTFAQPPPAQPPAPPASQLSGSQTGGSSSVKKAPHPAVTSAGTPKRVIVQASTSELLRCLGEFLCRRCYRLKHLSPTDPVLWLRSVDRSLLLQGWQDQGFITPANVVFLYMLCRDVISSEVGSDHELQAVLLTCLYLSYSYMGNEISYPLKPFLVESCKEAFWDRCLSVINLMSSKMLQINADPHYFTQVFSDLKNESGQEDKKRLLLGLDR
# [11] = target: Casein kinase I isoform delta (Homo sapiens, UniProt P48730); assay: Inhibition of N-terminal GST-tagged human recombinant CK1delta (1 to 294 residues) expressed in Escherichia coli incubated for 60 mins in presence of ATP by Kinase-glo luminescent assay
# Chain of Casein kinase I isoform delta (P48730 whole entry, the tested form may be a part, canonical isoform): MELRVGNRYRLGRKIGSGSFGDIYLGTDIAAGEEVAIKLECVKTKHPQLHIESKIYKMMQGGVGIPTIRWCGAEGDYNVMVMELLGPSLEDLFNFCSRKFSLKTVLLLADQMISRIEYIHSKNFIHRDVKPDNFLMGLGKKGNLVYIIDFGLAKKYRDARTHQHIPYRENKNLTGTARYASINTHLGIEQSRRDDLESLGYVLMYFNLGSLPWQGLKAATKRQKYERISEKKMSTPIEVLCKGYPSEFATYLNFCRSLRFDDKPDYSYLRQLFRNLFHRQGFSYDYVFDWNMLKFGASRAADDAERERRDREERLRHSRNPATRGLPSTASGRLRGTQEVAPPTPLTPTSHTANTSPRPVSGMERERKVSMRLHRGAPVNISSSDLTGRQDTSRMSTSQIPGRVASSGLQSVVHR
# [12] = target: Glycogen synthase kinase-3 beta (Homo sapiens, UniProt P49841); assay: Inhibition of N-terminal His6-tagged human recombinant GSK3beta expressed in baculovirus-infected Sf21 cells incubated for 60 mins in presence of ATP by ADP-glo analysis
# Chain of Glycogen synthase kinase-3 beta (P49841 whole entry): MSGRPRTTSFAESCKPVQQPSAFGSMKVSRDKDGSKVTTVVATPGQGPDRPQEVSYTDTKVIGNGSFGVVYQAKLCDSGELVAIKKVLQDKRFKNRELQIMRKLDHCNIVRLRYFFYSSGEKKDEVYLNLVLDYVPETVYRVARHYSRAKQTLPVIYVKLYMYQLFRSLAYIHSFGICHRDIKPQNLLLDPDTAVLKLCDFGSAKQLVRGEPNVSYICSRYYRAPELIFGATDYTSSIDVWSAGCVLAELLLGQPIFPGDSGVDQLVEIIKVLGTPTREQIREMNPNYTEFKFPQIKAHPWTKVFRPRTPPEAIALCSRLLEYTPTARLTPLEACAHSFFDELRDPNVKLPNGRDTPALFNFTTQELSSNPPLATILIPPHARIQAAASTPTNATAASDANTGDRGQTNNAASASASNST
# [13] = test system: HeLa; assay: Cytotoxicity against human HeLa cells assessed as reduction in cell viability measured after 24 hrs by MTT assay; assay type: functional, cell-based
# [14] = target: T1, Acetylcholinesterase; assay: Inhibition of human AchE using acetylthiocholine iodide as substrate incubated for 20 mins by Ellman's assay; conditions: read-out: EC50 (the source's name)
# [15] = Antioxidant activity assessed as DPPH radical scavenging activity; assay type: functional
# [16] = target: T1, Acetylcholinesterase; assay: Inhibition of Acetylcholinesterase (unknown origin) using acetylthiocholine iodide as substrate incubated for 20 mins by Ellaman's method
# [17] = Metal chelating activity assessed as iron chelation by CAS assay
# [18] = Antioxidant activity assessed as DPPH radical scavenging activity incubated for 20 mins by spectrophotometric method; assay type: functional
# [19] = test system: Helicoverpa armigera; assay: Antifeedant activity against Helicoverpa armigera at 100 uM relative to control; assay type: functional
# [20] = Antioxidant activity assessed as DPPH radical scavenging activity measured after 30 mins by UV-visible spectrophotometric analysis; assay type: functional
# [21] = Antioxidant activity assessed as ABTS radical scavenging activity incubated for 30 mins by UV-visible spectrphotometric analysis; assay type: functional
# [22] = test system: MCF7; assay: Cytotoxicity against human MCF7 cells assessed as reduction in cell viability measured after 24 hrs by MTT assay; assay type: functional, cell-based; conditions: MCF7, 24 h
# T1 sequence (P22303 whole entry): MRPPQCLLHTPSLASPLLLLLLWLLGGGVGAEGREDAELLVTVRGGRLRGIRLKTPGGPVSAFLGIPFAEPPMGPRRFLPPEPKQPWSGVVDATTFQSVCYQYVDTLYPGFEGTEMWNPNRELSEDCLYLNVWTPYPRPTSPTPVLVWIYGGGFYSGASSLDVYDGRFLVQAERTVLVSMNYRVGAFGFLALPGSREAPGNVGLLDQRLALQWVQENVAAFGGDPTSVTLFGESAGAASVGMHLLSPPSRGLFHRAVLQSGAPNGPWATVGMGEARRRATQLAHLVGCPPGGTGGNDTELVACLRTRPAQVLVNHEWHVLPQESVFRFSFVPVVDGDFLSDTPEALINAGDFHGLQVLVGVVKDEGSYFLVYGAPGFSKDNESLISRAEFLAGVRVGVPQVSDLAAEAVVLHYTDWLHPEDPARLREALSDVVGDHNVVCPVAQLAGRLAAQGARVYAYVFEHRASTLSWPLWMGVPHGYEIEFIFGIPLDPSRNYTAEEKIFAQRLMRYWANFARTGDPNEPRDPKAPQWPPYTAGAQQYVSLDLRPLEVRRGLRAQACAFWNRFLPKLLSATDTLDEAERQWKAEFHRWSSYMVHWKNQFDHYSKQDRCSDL
# Chain of Cholinesterase (P06276 whole entry): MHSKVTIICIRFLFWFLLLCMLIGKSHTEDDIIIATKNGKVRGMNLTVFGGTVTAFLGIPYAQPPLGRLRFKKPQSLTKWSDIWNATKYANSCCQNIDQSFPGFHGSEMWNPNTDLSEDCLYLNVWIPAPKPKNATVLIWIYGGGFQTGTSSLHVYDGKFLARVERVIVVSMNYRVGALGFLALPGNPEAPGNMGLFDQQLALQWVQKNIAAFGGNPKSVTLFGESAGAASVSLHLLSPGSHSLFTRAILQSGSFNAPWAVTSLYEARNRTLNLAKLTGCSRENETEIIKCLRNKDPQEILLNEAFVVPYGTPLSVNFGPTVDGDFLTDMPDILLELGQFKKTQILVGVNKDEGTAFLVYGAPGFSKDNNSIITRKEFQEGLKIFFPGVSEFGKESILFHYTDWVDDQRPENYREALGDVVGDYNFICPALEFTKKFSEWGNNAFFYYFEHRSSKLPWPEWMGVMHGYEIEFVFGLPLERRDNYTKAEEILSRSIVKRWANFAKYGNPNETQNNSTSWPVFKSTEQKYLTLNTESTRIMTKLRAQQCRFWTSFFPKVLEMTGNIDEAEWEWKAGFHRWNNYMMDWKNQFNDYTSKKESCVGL
structure (smiles),measurement,setting,value
C/C=C(\C)C(=O)O[C@H]1C[C@@H](OC(C)=O)[C@@]2(C(=O)OC)CO[C@H]3[C@@H](O)[C@@](C)([C@]45O[C@@]4(C)[C@H]4C[C@@H]5O[C@@H]5OC=C[C@@]54O)[C@H]4[C@]1(CO[C@]4(O)C(=O)OC)[C@@H]32 [AZADIRACTIN],EC50,[1],29.3 µM
same,EC50,[2],68.1 µM
O=C(O)[C@@H]1Cc2cc(O)c(O[C@@H]3O[C@H](CO[C@@H]4O[C@H](CO)[C@@H](O)[C@H](O)[C@H]4O)[C@@H](O)[C@H](O)[C@H]3O)cc2N1C(=O)/C=C/c1ccc(O[C@@H]2O[C@H](CO)[C@@H](O)[C@H](O)[C@H]2O)cc1,IC50,[3],53.1 µM
Cc1cnc(-c2ccc(O)c(O)c2)c(C)n1,IC50,[4],12.6 µM
Oc1cc2c(cc1O)CCN=C2,Activity,[5],24.2%
CC(=O)O[C@H]1C(=O)[C@@]2(C)[C@H]([C@H](OC(=O)c3ccccc3)[C@]3(O)C[C@H](OC(=O)[C@H](O)[C@@H](NC(=O)c4ccccc4)c4ccccc4)C(C)=C1C3(C)C)[C@]1(OC(C)=O)CO[C@@H]1C[C@@H]2O [PACLITAXEL],IC50,[6],0.15 µM
COc1cc(CCN(C)C)c2c(c1OC)SC(CCNC(=N)N)(C1=NCCc3cc(O)c(O)cc31)S2 (stereo not given),Ki,[7],5.9 µM
COc1cc(/C=C/C(=O)O[C@H]2[C@H](OC[C@H]3O[C@@H](Oc4cc5c(cc4O)C[C@@H](C(=O)O)N5C(=O)/C=C/c4ccc(O)c(OC)c4)[C@H](O)[C@@H](O)[C@@H]3O)O[C@H](CO)[C@@H](O[C@@H]3O[C@H](CO)[C@@H](O)[C@H](O)[C@H]3O)[C@@H]2O)ccc1O,Activity,[8],45.2%
same,Activity,[9],75.6%
COc1cc2c(cc1O)[C@@H]1Cc3cc(O)c(O)cc3C[N@@+]1(C)CC2,IC50,[6],85.1 µM
O=C1C(c2ccc(O)c(O)c2)=c2c(c3c(n2CCc2ccc(O)c(O)c2)=C(c2ccc(O)c(O)c2)C(=O)c2cc(O)c(O)cc2-3)-c2cc(O)c(O)cc21,IC50,[10],< 0.5 µM
same,IC50,[11],< 0.3 µM
same,IC50,[12],< 0.2 µM
Oc1cc2c(cc1O)[C@@H](C1=C[C@@]3(O)CC/C=C\CCCCN4CC[C@@H]1[C@]1(C[C@@H]5/C=C\CCCCN5[C@H]13)C4)NCC2,IC50,[13],4.2 µM
O=C(/C=C/c1ccc(O)c(O)c1)n1ccc2cc(O)c(O)cc21,IC50,[14],44.8 µM
COc1cc(/C=C/C(=O)n2ccc3cc(O)c(O)cc32)ccc1O,EC50,[15],13.9 µM
same,IC50,[14],46.8 µM
O=C1c2c(ccc(O)c2O)CCn2cccc21,IC50,[16],50.5 µM
NC[C@H](CCCCNC(=O)c1cccc(O)c1O)N1C(=O)c2c(ccc(O)c2O)[C@@H](c2ccc(O)cc2)[C@]1(O)C(=O)O,EC50,[17],38.4 µM
O=c1oc2cc(O)c(O)cc2c2c(-c3ccc(O)c(O)c3)cn(CCc3ccc(O)c(O)c3)c12,IC50,[10],2.6 µM
same,IC50,[11],1.5 µM
same,IC50,[12],0.8 µM
COC(=O)[C@@H]1Cc2cc(O)c(O[C@@H]3O[C@H](CO)[C@@H](O)[C@H](O)[C@H]3O)cc2N1C(=O)/C=C/c1ccc(O)c(OC)c1,EC50,[18],21 µM
COc1cc(/C=C/C(=O)O[C@H]2[C@H](OC[C@H]3O[C@@H](Oc4cc5c(cc4O)C[C@@H](C(=O)O)N5C(=O)/C=C/c4ccc(O)c(O[C@@H]5O[C@H](CO)[C@@H](O)[C@H](O)[C@H]5O)c4)[C@H](O)[C@@H](O)[C@@H]3O)O[C@H](CO)[C@@H](O[C@@H]3O[C@H](COC(=O)/C=C/c4cc(OC)c(O)c(OC)c4)[C@@H](O)[C@H](O)[C@H]3O)[C@@H]2O)ccc1O,Activity,[8],22.4%
same,Activity,[9],63.2%
O=C1C(c2ccc(O)c(O)c2)=C2C(=C(c3ccc(O)c(O)c3)C(=O)N2CCc2ccc(O)c(O)c2)c2cc(O)c(O)cc21,IC50,[10],< 1.5 µM
same,IC50,[11],< 0.2 µM
same,IC50,[12],< 0.2 µM
O=C(/C=C/c1ccc(O)cc1)NCCc1ccc(O)c(O)c1,EC50,[1],16.9 µM
same,Activity,[19],65.1%
same,EC50,[2],41.3 µM
O=c1oc2cc(O)c(O)cc2c2c3c4cc(O)c(O)cc4oc(=O)c3n(CCc3ccc(O)c(O)c3)c12,IC50,[10],10 µM
same,IC50,[11],3.9 µM
same,IC50,[12],3.1 µM
O=C1C(c2ccc(O)c(O)c2)=c2c(c3c(n2CCc2ccc(O)c(O)c2)=C(c2ccc(O)c(O)c2)C(=O)c2c-3ccc(O)c2O)-c2cc(O)c(O)cc21,IC50,[10],< 2.4 µM
same,IC50,[11],< 1.4 µM
same,IC50,[12],< 0.5 µM
O=C1O[C@H]([C@@H](O)CO)C(O)=C1O [ASCORBIC ACID],EC50,[20],9.72 µg/mL
same,EC50,[21],4.89 µg/mL
O=C1CCc2cc(O)c(O)cc2N1,IC50,[22],20.5 µM
